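Five concentrations, 48 hours, 96-well plates. GI50 is the concentration that inhibits growth by half.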 Calls of active or inactive are those of the source. Rule as the data show it: active = GI50 up to about 1.1 µM and inactive = higher.
Experiments:
Experiment in all cases: growth of human tumour cells (NCI), 48 h
[1] = test system: HCT-15
[2] = test system: UACC-62
[3] = test system: HT-29
[4] = test system: NCI-H23
[5] = test system: SK-MEL-2
[6] = test system: CAKI-1
[7] = test system: Malme-3M
[8] = test system: OVCAR-5
[9] = test system: SF-539
[10] = test system: K562
[11] = test system: RPMI-8226
[12] = test system: SNB-19
[13] = test system: OVCAR-8
[14] = test system: CCRF-CEM
[15] = test system: MCF7
[16] = test system: M14
[17] = test system: SN12C
[18] = test system: UACC-257
[19] = test system: HCT-116
[20] = test system: HOP-92

| SMILES | GI50 [1] [µM] | GI50 [2] | GI50 [3] | GI50 [4] | GI50 [5] | GI50 [6] | GI50 [7] | GI50 [8] | GI50 [9] | GI50 [10] | GI50 [11] | GI50 [12] | GI50 [13] | GI50 [14] | GI50 [15] | GI50 [16] | GI50 [17] | GI50 [18] | GI50 [19] | GI50 [20] |
| --- | --- | --- | --- | --- | --- | --- | --- | --- | --- | --- | --- | --- | --- | --- | --- | --- | --- | --- | --- | --- |
| Nc1nc2c(c(=O)[nH]1)N=C(COP(=O)(O)OP(=O)(O)O)CN2 | > 100 | > 100 µM (inactive) | > 100 µM (inactive) | > 100 µM (inactive) | > 100 µM (inactive) | > 100 µM (inactive) | > 100 µM (inactive) | > 100 µM (inactive) | > 100 µM (inactive) | > 100 µM (inactive) | > 100 µM (inactive) | > 100 µM (inactive) | > 100 µM (inactive) | > 100 µM (inactive) | > 100 µM (inactive) | > 100 µM (inactive) | > 100 µM (inactive) | > 100 µM (inactive) | > 100 µM (inactive) |  |
| CN1CN(c2ccccc2)C2(CCN(CCCSc3ccccc3NC(=O)/C=C/c3ccccc3)CC2)C1=O | 6.92 | 2.71 µM (inactive) | 2.29 µM (inactive) | 4.61 µM (inactive) | 2.58 µM (inactive) | 9.91 µM (inactive) | 2.15 µM (inactive) | 22.6 µM (inactive) | 2.88 µM (inactive) | 3.85 µM (inactive) | 1.89 µM (inactive) | 5.27 µM (inactive) | 6.19 µM (inactive) | 2.93 µM (inactive) | 13 µM (inactive) | 1.71 µM (inactive) | 3.39 µM (inactive) | 1.78 µM (inactive) | 2.5 µM (inactive) |  |
| CC12CCC(CC1=O)C2(C)CCC(N)=O (stereo not drawn) | > 100 | > 100 µM (inactive) | > 100 µM (inactive) | > 100 µM (inactive) | > 100 µM (inactive) | > 100 µM (inactive) | > 100 µM (inactive) | > 100 µM (inactive) |  | > 100 µM (inactive) | > 100 µM (inactive) | > 100 µM (inactive) | > 100 µM (inactive) | > 100 µM (inactive) | > 100 µM (inactive) | > 100 µM (inactive) | > 100 µM (inactive) | > 100 µM (inactive) | > 100 µM (inactive) |  |
| CC(=O)N(C(C)=O)n1c(Cc2ccc(Cl)cc2)nn(C(C)=O)c1=O | > 100 | > 100 µM (inactive) | > 100 µM (inactive) | > 100 µM (inactive) | > 100 µM (inactive) |  | > 100 µM (inactive) | > 100 µM (inactive) | > 100 µM (inactive) | > 100 µM (inactive) | > 100 µM (inactive) | > 100 µM (inactive) | > 100 µM (inactive) | > 100 µM (inactive) | > 100 µM (inactive) | > 100 µM (inactive) | > 100 µM (inactive) |  |  |  |
| CC1(C2(C)OC(=O)c3ccccc32)OC(=O)c2ccccc21 (stereo not drawn) | > 100 | > 100 µM (inactive) | > 100 µM (inactive) | > 100 µM (inactive) | > 100 µM (inactive) | > 100 µM (inactive) |  |  | > 100 µM (inactive) |  | > 100 µM (inactive) | > 100 µM (inactive) | > 100 µM (inactive) |  | > 100 µM (inactive) | > 100 µM (inactive) | > 100 µM (inactive) | > 100 µM (inactive) | > 100 µM (inactive) | > 100 µM (inactive) |
| CC1=NN(c2ccccc2)C(=O)C1/N=N/c1ccc(Br)cc1C (stereo not drawn) | > 100 | > 100 µM (inactive) | > 100 µM (inactive) | 38 µM (inactive) | 56.6 µM (inactive) | 46.2 µM (inactive) | > 100 µM (inactive) | > 100 µM (inactive) | 58.9 µM (inactive) | > 100 µM (inactive) | > 100 µM (inactive) | 85.9 µM (inactive) | 95.9 µM (inactive) | > 100 µM (inactive) |  | 90.4 µM (inactive) | > 100 µM (inactive) | > 100 µM (inactive) | 81.3 µM (inactive) | 38.6 µM (inactive) |
| O=C(c1ccc(Cl)cc1)N(C(=S)N1CCN(c2ccccc2)CC1)C1CCCCC1 | > 100 | > 100 µM (inactive) | > 100 µM (inactive) | > 100 µM (inactive) | > 100 µM (inactive) | > 100 µM (inactive) | > 100 µM (inactive) | > 100 µM (inactive) | > 100 µM (inactive) | 58.2 µM (inactive) | 63.5 µM (inactive) | > 100 µM (inactive) | > 100 µM (inactive) | > 100 µM (inactive) |  | > 100 µM (inactive) | > 100 µM (inactive) | 91.2 µM (inactive) | 45.7 µM (inactive) | > 100 µM (inactive) |
| COc1ccc(-c2[nH]c(=O)n(C3OC(CO)C(O)C(O)C3O)c(=O)c2C#N)cc1 (stereo not drawn) | > 100 | > 100 µM (inactive) | > 100 µM (inactive) | > 100 µM (inactive) | > 100 µM (inactive) | > 100 µM (inactive) |  | > 100 µM (inactive) | > 100 µM (inactive) | > 100 µM (inactive) | > 100 µM (inactive) | > 100 µM (inactive) | > 100 µM (inactive) | > 100 µM (inactive) | > 100 µM (inactive) | > 100 µM (inactive) | > 100 µM (inactive) | > 100 µM (inactive) | > 100 µM (inactive) | > 100 µM (inactive) |
| CCN(CC)c1ccc(/N=N/c2ccc(-c3nc4ccc[n+](C)c4o3)cc2)cc1 | 10.3 | 9.27 µM (inactive) | 11.3 µM (inactive) | 12.8 µM (inactive) | 12 µM (inactive) | 12.9 µM (inactive) | 2.31 µM (inactive) | 3.54 µM (inactive) | 5.46 µM (inactive) | 2.4 µM (inactive) | 2.75 µM (inactive) | 13.3 µM (inactive) | 5.11 µM (inactive) | 3.27 µM (inactive) |  | 12.1 µM (inactive) | 15.5 µM (inactive) | 7.01 µM (inactive) | 4.18 µM (inactive) | 15.2 µM (inactive) |
| S=C1CCSc2c(ccc3ccccc23)N1 | > 100 | 93.8 µM (inactive) | > 100 µM (inactive) | > 100 µM (inactive) |  | > 100 µM (inactive) | > 100 µM (inactive) | > 100 µM (inactive) |  | 56 µM (inactive) |  | 95.5 µM (inactive) | > 100 µM (inactive) | > 100 µM (inactive) | 72.4 µM (inactive) | > 100 µM (inactive) | > 100 µM (inactive) | > 100 µM (inactive) | > 100 µM (inactive) |  |
| COC(=O)[C@@H](Cc1ccccc1)NNC(=O)OC(C)(C)C | > 100 | > 100 µM (inactive) |  | > 100 µM (inactive) |  |  | > 100 µM (inactive) | > 100 µM (inactive) | > 100 µM (inactive) | > 100 µM (inactive) | > 100 µM (inactive) |  | > 100 µM (inactive) | > 100 µM (inactive) | > 100 µM (inactive) |  | > 100 µM (inactive) | > 100 µM (inactive) | > 100 µM (inactive) |  |
| Cc1cc2c(cc1C)[n+]([O-])c(C(=O)CC(=O)C(=O)Nc1ccccc1C(C)C)c(C)[n+]2[O-] | > 100 | > 100 µM (inactive) | > 100 µM (inactive) | > 100 µM (inactive) | > 100 µM (inactive) | > 100 µM (inactive) | > 100 µM (inactive) | > 100 µM (inactive) | > 100 µM (inactive) | > 100 µM (inactive) | > 100 µM (inactive) | > 100 µM (inactive) | > 100 µM (inactive) | > 100 µM (inactive) |  | > 100 µM (inactive) | > 100 µM (inactive) | 1.08 µM (active) | > 100 µM (inactive) | > 100 µM (inactive) |
| O=[N+]([O-])c1ccc(Cl)c(C2CC(c3cccc4ccccc34)=Nc3ccccc3S2)c1 (stereo not drawn) | 15.2 | 15.4 µM (inactive) | 17.3 µM (inactive) | 11.4 µM (inactive) | 21.7 µM (inactive) | 21.9 µM (inactive) | > 54.8 µM (inactive) | 42.1 µM (inactive) | 20.6 µM (inactive) | 6.31 µM (inactive) | 2.6 µM (inactive) | 44.4 µM (inactive) | 12.9 µM (inactive) | 3.43 µM (inactive) |  | 20.6 µM (inactive) | 21 µM (inactive) | 31.6 µM (inactive) | 6.68 µM (inactive) | 2.64 µM (inactive) |
| CN(Cc1cnc2nc(N)nc(N)c2n1)c1ccc(C(=O)NCCS(=O)(=O)O)cc1 | > 100 | > 100 µM (inactive) | > 100 µM (inactive) | > 100 µM (inactive) | > 100 µM (inactive) | > 100 µM (inactive) | > 100 µM (inactive) | > 100 µM (inactive) | > 100 µM (inactive) | > 100 µM (inactive) | > 100 µM (inactive) | > 100 µM (inactive) | > 100 µM (inactive) |  | > 100 µM (inactive) | > 100 µM (inactive) | > 100 µM (inactive) | > 100 µM (inactive) | 91.6 µM (inactive) |  |
| CC(C)(CCCCC(C)(C)[N+](C)(C)C)[N+](C)(C)C | > 100 |  | > 100 µM (inactive) |  |  |  |  | > 100 µM (inactive) | > 100 µM (inactive) | > 100 µM (inactive) | > 100 µM (inactive) | > 100 µM (inactive) | > 100 µM (inactive) | > 100 µM (inactive) | > 100 µM (inactive) | > 100 µM (inactive) | > 100 µM (inactive) | > 100 µM (inactive) | > 100 µM (inactive) |  |
| COc1ccccc1/C=C1\CCC(CCN(C)C)(C2=CCCC2)C1=O (stereo not drawn) | 19.2 | 11.2 µM (inactive) | 15.3 µM (inactive) | 31.6 µM (inactive) | 19.5 µM (inactive) | 20.9 µM (inactive) | 15.7 µM (inactive) | 19.1 µM (inactive) | 15.1 µM (inactive) | 11.1 µM (inactive) | 17.8 µM (inactive) | 16.1 µM (inactive) | 17.5 µM (inactive) | 16.5 µM (inactive) |  | 15.5 µM (inactive) | 22.1 µM (inactive) | 17.2 µM (inactive) | 12.7 µM (inactive) | 16.9 µM (inactive) |
